According to PMC10117287 (RSC Advances, 2023):

Biological target: α-glucosidase (Saccharomyces cerevisiae, UniProt P53341)
Experiment: α-glucosidase inhibitory activity
Format: biochemical

Sequence of α-glucosidase (P53341 whole entry): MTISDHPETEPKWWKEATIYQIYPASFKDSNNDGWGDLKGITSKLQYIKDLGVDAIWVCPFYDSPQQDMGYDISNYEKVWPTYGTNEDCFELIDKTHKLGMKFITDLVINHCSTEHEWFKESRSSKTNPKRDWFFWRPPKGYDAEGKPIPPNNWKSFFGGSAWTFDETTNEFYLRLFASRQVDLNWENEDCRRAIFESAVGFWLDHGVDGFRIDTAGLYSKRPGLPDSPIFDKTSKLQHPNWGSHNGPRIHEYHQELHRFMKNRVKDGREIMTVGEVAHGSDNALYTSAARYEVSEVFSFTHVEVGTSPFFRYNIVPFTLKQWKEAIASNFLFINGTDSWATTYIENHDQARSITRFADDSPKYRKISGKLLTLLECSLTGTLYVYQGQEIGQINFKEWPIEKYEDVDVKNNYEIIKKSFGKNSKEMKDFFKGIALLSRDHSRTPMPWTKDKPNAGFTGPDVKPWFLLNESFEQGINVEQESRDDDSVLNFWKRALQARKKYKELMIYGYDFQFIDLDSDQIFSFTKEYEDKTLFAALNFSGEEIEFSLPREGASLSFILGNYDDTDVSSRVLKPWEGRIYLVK

## COc1cc(-c2nc(-c3ccccc3)c(-c3ccccc3)n2-c2ccc(O)cc2)ccc1O [IMI-13]
pH 7, read-out: Inhibition (I%) 10 (μM)
  inhibition at 10 µM: > 100%
pH 7, read-out: Inhibition (I%) 20 (μM)
  inhibition at 20 µM: 99.28 ± 0.51%
pH 7, read-out: Inhibition (I%) 30 (μM)
  inhibition at 30 µM: 95.2 ± 1%
pH 7, read-out: Inhibition (I%) 40 (μM)
  inhibition at 40 µM: 81.9 ± 1.3%
pH 7, read-out: Inhibition (I%) 50 (μM)
  inhibition at 50 µM: 26 ± 1.2%
